Reference: article PMC12217109, “Development of novel benzamide class I selective lysine deacetylase inhibitors as potent anticancer agents” (Journal of Enzyme Inhibition and Medicinal Chemistry, 2025)
Where two headings read alike, the source gives them in different places.

Columns and labels:
HeLa nuclear KDACs = test: Fluor-de-Lys HDAC fluorometric activity assay with HeLa nuclear extract; type: biochemical; conditions: for IC50: HeLa nuclear extract, up to 20 µM, read-out: HDAC Inhibition IC50; for IC20: concentration inhibiting HDAC activity by 20%, read-out: HDAC Inhibition IC20
Protocol: Total zinc-dependent KDAC (classes I, II and IV) activity was measured using the Fluor-de-Lys^TM HDAC fluorometric activity assay kit (BioMol, Exeter, UK), as per manufacturers protocol. Briefly, HeLa nuclear extract, potential inhibitor (5 nM–20 μM) and assay buffer were incubated in a 96-well fluorometric plate at 37 °C for 15 min. Acetylated substrate (100 μM) was added and the mixture incubated at 37 °C for a further 20 min. The developer was added and the mixture incubated at 37 °C for a further 15 min. Fluorescence was measured using a microplate reader (λex = 360 nm, λem = 460 nm). Percentage KDAC activity and thus KDAC inhibition was determined by quantification of fluorescence obtained in the presence versus absence of the respective inhibitor.

[1] = test system: A2780 ovarian cancer cell line; test: MTT cellular viability assay, A2780; type: cell-based; conditions: Homo sapiens
786-0 = test: NCI-60 cytotoxicity screen; type: cell-based; conditions: Homo sapiens, NCI-60, 48 h, renal
Source text: (§1) Compounds 3–7 were submitted to the US National Cancer Institute (NIH, Bethesda, Maryland) for screening against the NCI-60 panel of human cancer cell lines, as per standard protocol.

A549 = test: NCI-60 cytotoxicity screen; type: cell-based; conditions: Homo sapiens, NCI-60, 48 h, NSCLC
Source text: as §1

BT 549 = test: NCI-60 cytotoxicity screen; type: cell-based; conditions: Homo sapiens, NCI-60, 48 h, breast
Source text: as §1

CAKI-1 = test: NCI-60 cytotoxicity screen; type: cell-based; conditions: Homo sapiens, NCI-60, 48 h, renal
Source text: as §1

COLO205 = test: NCI-60 cytotoxicity screen; type: cell-based; conditions: Homo sapiens, COLO 205; NCI-60, 48 h, colon
Source text: as §1

DU-145 = test: NCI-60 cytotoxicity screen; type: cell-based; conditions: Homo sapiens, NCI-60, 48 h, prostate
Source text: as §1

EKVX = test: NCI-60 cytotoxicity screen; type: cell-based; conditions: Homo sapiens, NCI-60, 48 h, NSCLC
Source text: as §1

H23 = test: NCI-60 cytotoxicity screen; type: cell-based; conditions: Homo sapiens, NCI-60, 48 h, NSCLC
Source text: as §1

H460 = test: NCI-60 cytotoxicity screen; type: cell-based; conditions: Homo sapiens, NCI-60, 48 h, NSCLC
Source text: as §1

HCT116 = test: NCI-60 cytotoxicity screen; type: cell-based; conditions: Homo sapiens, HCT-116; NCI-60, 48 h, colon
Source text: as §1

HL-60 = test: NCI-60 cytotoxicity screen; type: cell-based; conditions: Homo sapiens, NCI-60, 48 h, leukaemia
Source text: as §1

HS 578 T = test: NCI-60 cytotoxicity screen; type: cell-based; conditions: Homo sapiens, NCI-60, 48 h, breast
Source text: as §1

KM12 = test: NCI-60 cytotoxicity screen; type: cell-based; conditions: Homo sapiens, NCI-60, 48 h, colon
Source text: as §1

M14 = test: NCI-60 cytotoxicity screen; type: cell-based; conditions: Homo sapiens, NCI-60, 48 h, melanoma
Source text: as §1

MCF-7 = test: NCI-60 cytotoxicity screen; type: cell-based; conditions: Homo sapiens, MCF7; NCI-60, 48 h, breast
Source text: as §1

MDA-MB-435 = test: NCI-60 cytotoxicity screen; type: cell-based; conditions: Homo sapiens, NCI-60, 48 h, melanoma
Source text: as §1

NCI/ADR-RES = test: NCI-60 cytotoxicity screen; type: cell-based; conditions: Homo sapiens, NCI-60, 48 h, ovarian
Source text: as §1

OVCAR-3 = test: NCI-60 cytotoxicity screen; type: cell-based; conditions: Homo sapiens, NCI-60, 48 h, ovarian
Source text: as §1

OVCAR-4 = test: NCI-60 cytotoxicity screen; type: cell-based; conditions: Homo sapiens, NCI-60, 48 h, ovarian
Source text: as §1

OVCAR-8 = test: NCI-60 cytotoxicity screen; type: cell-based; conditions: Homo sapiens, NCI-60, 48 h, ovarian
Source text: as §1

PC-3 = test: NCI-60 cytotoxicity screen; type: cell-based; conditions: Homo sapiens, NCI-60, 48 h, prostate
Source text: as §1

RPMI-8226 = test: NCI-60 cytotoxicity screen; type: cell-based; conditions: Homo sapiens, NCI-60, 48 h, leukaemia
Source text: as §1

RXF 393 = test: NCI-60 cytotoxicity screen; type: cell-based; conditions: Homo sapiens, NCI-60, 48 h, renal
Source text: as §1

SF-268 = test: NCI-60 cytotoxicity screen; type: cell-based; conditions: Homo sapiens, NCI-60, 48 h, CNS
Source text: as §1

SF-295 = test: NCI-60 cytotoxicity screen; type: cell-based; conditions: Homo sapiens, NCI-60, 48 h, CNS
Source text: as §1

SF-539 = test: NCI-60 cytotoxicity screen; type: cell-based; conditions: Homo sapiens, NCI-60, 48 h, CNS
Source text: as §1

SK-MEL-28 = test: NCI-60 cytotoxicity screen; type: cell-based; conditions: Homo sapiens, NCI-60, 48 h, melanoma
Source text: as §1

SK-MEL-2 = test: NCI-60 cytotoxicity screen; type: cell-based; conditions: Homo sapiens, NCI-60, 48 h, melanoma
Source text: as §1

SK-MEL-5 = test: NCI-60 cytotoxicity screen; type: cell-based; conditions: Homo sapiens, NCI-60, 48 h, melanoma
Source text: as §1

SNB-19 = test: NCI-60 cytotoxicity screen; type: cell-based; conditions: Homo sapiens, NCI-60, 48 h, CNS
Source text: as §1

SNB-75 = test: NCI-60 cytotoxicity screen; type: cell-based; conditions: Homo sapiens, NCI-60, 48 h, CNS
Source text: as §1

SW620 = test: NCI-60 cytotoxicity screen; type: cell-based; conditions: Homo sapiens, SW-620; NCI-60, 48 h, colon
Source text: as §1

U251 = test: NCI-60 cytotoxicity screen; type: cell-based; conditions: Homo sapiens, U-251; NCI-60, 48 h, CNS
Source text: as §1

UACC-62 = test: NCI-60 cytotoxicity screen; type: cell-based; conditions: Homo sapiens, NCI-60, 48 h, melanoma
Source text: as §1

H322M = test: NCI-60 cytotoxicity screen; type: cell-based, human; conditions: Homo sapiens, NCI-H322M; NCI-60, 48 h, NSCLC
Source text: as §1

TK-10 = test: NCI-60 cytotoxicity screen; type: cell-based, human; conditions: Homo sapiens, TK-10; NCI-60, 48 h, renal
Source text: as §1

UACC-257 = test: NCI-60 cytotoxicity screen; type: cell-based, human; conditions: Homo sapiens, UACC-257; NCI-60, 48 h, melanoma
Source text: as §1

OVCAR-5 = test: NCI-60 cytotoxicity screen; type: cell-based; conditions: Homo sapiens, NCI-60, 48 h, ovarian
T-47D = test: NCI-60 cytotoxicity screen; type: cell-based, human; conditions: Homo sapiens, T47D; NCI-60, 48 h, breast
[2] = A2780, MTT, 96 h, read-out: A2780 IC50
[3] = listed as A2780* of Table 4, ovarian, values as in Tables 1 and 2 (MTT), read-out: A2780* cytotoxicity IC50

C=C(CN1CCN(c2ccc(C(F)(F)F)cc2)CC1)c1ccc(C(=O)Nc2ccccc2N)cc1 [Compound 5, N-(2-aminophenyl)-4–(3-(4–(4-(trifluoromethyl)phenyl)piperazin-1-yl)prop-1-en-2-yl)benzamide]
IC50 (HeLa nuclear KDACs): > 20000 nM
IC20 (HeLa nuclear KDACs): 5800 ± 1800 nM
IC50 [1, 2]: 1900 ± 400 nM
IC50 [1, 3]: 1900 nM
IC50 (786-0): 2850 nM
IC50 (A549): 6430 nM
IC50 (BT 549): 6920 nM
IC50 (CAKI-1): 6080 nM
IC50 (COLO205): > 100000 nM
IC50 (DU-145): 21000 nM
IC50 (EKVX): 12400 nM
IC50 (H23): 9480 nM
IC50 (H460): 3440 nM
IC50 (HCT116): 11400 nM
IC50 (HL-60): 80 nM
IC50 (HS 578 T): 22500 nM
IC50 (KM12): 7640 nM
IC50 (M14): 90600 nM
IC50 (MCF-7): 10900 nM
IC50 (MDA-MB-435): 25200 nM
IC50 (NCI/ADR-RES): 3370 nM
IC50 (OVCAR-3): 12000 nM
IC50 (OVCAR-4): 5680 nM
IC50 (OVCAR-8): 6950 nM
IC50 (PC-3): 1290 nM
IC50 (RPMI-8226): 400 nM
IC50 (RXF 393): 1970 nM
IC50 (SF-268): 6780 nM
IC50 (SF-295): 10800 nM
IC50 (SF-539): 8150 nM
IC50 (SK-MEL-28): > 100000 nM
IC50 (SK-MEL-2): > 100000 nM
IC50 (SK-MEL-5): 4430 nM
IC50 (SNB-19): 12600 nM
IC50 (SNB-75): 12400 nM
IC50 (SW620): 78900 nM
IC50 (U251): 6250 nM
IC50 (UACC-62): 23000 nM
IC50 (H322M): 40500 nM
IC50 (TK-10): 21000 nM
IC50 (UACC-257): 2390 nM
IC50 (OVCAR-5): > 100000 nM
IC50 (T-47D): 21800 nM

C=C(CN1CCN(c2ccccn2)CC1)c1ccc(C(=O)Nc2ccccc2N)cc1 [Compound 6, N-(2-aminophenyl)-4–(3-(4-(pyridin-2-yl)piperazin-1-yl)prop-1-en-2-yl)benzamide]
IC50 (HeLa nuclear KDACs): > 20000 nM
IC20 (HeLa nuclear KDACs): > 10000 nM
IC50 [1, 2]: 3500 ± 1300 nM
IC50 [1, 3]: 3500 nM
IC50 (786-0): 1210 nM
IC50 (A549): 2390 nM
IC50 (BT 549): 3940 nM
IC50 (CAKI-1): 1190 nM
IC50 (COLO205): 1710 nM
IC50 (DU-145): 2520 nM
IC50 (EKVX): 5330 nM
IC50 (H23): 940 nM
IC50 (H460): 2810 nM
IC50 (HCT116): 2500 nM
IC50 (HL-60): 2190 nM
IC50 (HS 578 T): 1110 nM
IC50 (KM12): 940 nM
IC50 (M14): 8470 nM
IC50 (MCF-7): 3160 nM
IC50 (MDA-MB-435): 530 nM
IC50 (NCI/ADR-RES): 1310 nM
IC50 (OVCAR-3): 1240 nM
IC50 (OVCAR-4): 6350 nM
IC50 (OVCAR-8): 1500 nM
IC50 (PC-3): 3780 nM
IC50 (RPMI-8226): 1600 nM
IC50 (RXF 393): 1550 nM
IC50 (SF-268): 1660 nM
IC50 (SF-295): 1390 nM
IC50 (SF-539): 1500 nM
IC50 (SK-MEL-28): 2520 nM
IC50 (SK-MEL-2): 1870 nM
IC50 (SK-MEL-5): 730 nM
IC50 (SNB-19): 4860 nM
IC50 (SNB-75): 1480 nM
IC50 (SW620): 1710 nM
IC50 (U251): 1480 nM
IC50 (UACC-62): 1410 nM
IC50 (H322M): 3120 nM
IC50 (TK-10): 1850 nM
IC50 (UACC-257): 2320 nM
IC50 (OVCAR-5): 6100 nM
IC50 (T-47D): 1230 nM

C=C(CN1CCN(c2cccc(C(F)(F)F)n2)CC1)c1ccc(C(=O)Nc2ccccc2N)cc1 [Compound 7, N-(2-aminophenyl)-4–(3-(4–(6-(trifluoromethyl)pyridin-2-yl)piperazin-1-yl)prop-1-en-2-yl)benzamide]
IC50 (HeLa nuclear KDACs): > 20000 nM
IC20 (HeLa nuclear KDACs): 800 ± 200 nM
IC50 [1, 2]: 800 ± 100 nM
IC50 [1, 3]: 800 nM
IC50 (786-0): 1970 nM
IC50 (A549): 3320 nM
IC50 (BT 549): 920 nM
IC50 (CAKI-1): 510 nM
IC50 (COLO205): 3330 nM
IC50 (DU-145): 1450 nM
IC50 (EKVX): 24300 nM
IC50 (H23): 14100 nM
IC50 (H460): 640 nM
IC50 (HCT116): 540 nM
IC50 (HL-60): 320 nM
IC50 (HS 578 T): 450 nM
IC50 (KM12): 670 nM
IC50 (M14): 970 nM
IC50 (MCF-7): 350 nM
IC50 (MDA-MB-435): 270 nM
IC50 (NCI/ADR-RES): 640 nM
IC50 (OVCAR-3): 260 nM
IC50 (OVCAR-4): 8360 nM
IC50 (OVCAR-8): 4250 nM
IC50 (PC-3): 420 nM
IC50 (RPMI-8226): 530 nM
IC50 (RXF 393): 670 nM
IC50 (SF-268): 1120 nM
IC50 (SF-295): 390 nM
IC50 (SF-539): 980 nM
IC50 (SK-MEL-28): 2080 nM
IC50 (SK-MEL-2): 5650 nM
IC50 (SK-MEL-5): 400 nM
IC50 (SNB-19): 650 nM
IC50 (SNB-75): 670 nM
IC50 (SW620): 530 nM
IC50 (U251): 1160 nM
IC50 (UACC-62): 970 nM
IC50 (H322M): > 100000 nM
IC50 (TK-10): 16400 nM
IC50 (UACC-257): 26500 nM
IC50 (OVCAR-5): 710 nM
IC50 (T-47D): 3010 nM
